Source: patent publication US10501493B2, “Broad spectrum antibiotics” (priority 2011, dated 2019)
Values after ≈ are worked out from the molar mass of the structure shown.

What was measured:
S. aurues NCTC-8325 = assay: In vitro antimicrobial activity, MIC by broth micro-dilution; type: cell-based, S. aureus; settings: Staphylococcus aureus, NCTC8325, read-out: MIC class, S. aurues NCTC-8325
Protocol: (§1) In vitro antimicrobial activity of each compound was determined by measuring minimal inhibitor concentrations (MICs) using the broth micro-dilution technique as approved by the Clinical and Laboratory Standards Institute (CLSI). The microbiological panel examined contains a number of bacterial species including E. coli MG1655, P. aeruginosa, S. aureus, and S. epidermidis. In addition, the panel includes previously described pseudo-isogenic strains of these four species (P. A. Smith et al. Chem Biol 2010, 1223-1231), in which a specific proline residue in SPase (called LepB in Gram-negative organisms an SpsB in Gram-positive organisms) has been mutated to a different amino acid. The resulting strains have increased susceptibility to the arylomycin class of antibiotics. Analysis of the strains lacking this proline residue will increases the dynamic range of the assay, and comparison of the sensitivities of the isogenic pairs provides ongoing confirmation that the activity gained through derivatization is specific to the inhibition of SPase. Briefly, bacterial streaks were grown on Mueller Hinton Agar II (Difco™) with or without 5% lysed horse blood for a period of 24 hours at either 35° C. or 28° C. Bacterial colonies were suspended in cation adjusted Mueller Hinton broth and diluted to a final concentration of 1*10^7 colony forming units/ml. Two-fold serial dilutions of each compound were arrayed into 96-well plates (100 μl final volume per well) and 5 ul of the bacterial suspension will be added. […] MICs were periodically checked plating serial dilutions of MIC wells and quantitatively determining viable colonies.

E. coli ATCC 25922 = assay: as above; type: cell-based; settings: Escherichia coli, ATCC25922; read-out: MIC class, E. coli ATCC 25922
Protocol: as §1

S. epidermidis RP62A = assay: as above; type: cell-based; settings: Staphylococcus epidermidis, RP62A; read-out: MIC class, S. epidermidis RP62A
Protocol: as §1

[1] = system: S. aureus NCTC-8325 SpsB(P295); assay: as above; type: cell-based; settings: Staphylococcus aureus, NCTC8325, read-out: MIC class, S. aureus NCTC-8325 SpsB(P295)
Protocol: as §1

S. pneumoniae D39 = assay: as above; type: cell-based; settings: Streptococcus pneumoniae, D39; read-out: MIC class, S. pneumoniae D39
Protocol: as §1

[2] = system: E. col ATCC 25922 LepB(P84L); assay: as above; type: cell-based, E. coli; settings: Escherichia coli, ATCC25922, read-out: MIC class, E. col ATCC 25922 LepB(P84L)
Protocol: as §1

E. coli SPase = target: T1, E. coli SPase (Escherichia coli, UniProt P00803); assay: Enzymatic fluorogenic substrate cleavage assay for IC50; type: biochemical
T1 construct: Full length His-tagged E. coli SPase proteins were expressed in E. coli BL21(DE3); His-tag; made in house; host or cells: E. coli BL21(DE3)
Protocol: (§2) Full length His-tagged E. coli SPase proteins were expressed in E. coli BL21(DE3) containing the plasmid pET23-lepB, P. A. Smith et al. Chem Biol 2010, 1223-1231. Briefly, saturated overnight cultures grown in 20 ml of Luria-Bertani medium supplemented with ampicillin were subcultures into 1.5 L of Luria-Bertani, and shaken at 37° C. until an optical density at 600 nm of 0.4-0.5 was achieved. Protein expression was induced with Isopropyl β-D-1-thiogalactopyranoside (ITPG) at a final concentration of […], and purified using nickel affinity chromatography. Full length His-tagged S. aureus SPase protein was expressed similarly from E. coli BL21(DE3) containing the plasmid pCDF1-SaSpsB or pCDF1-SaSpsB(P29S) and purified similarly to the E. coli protein with the following exceptions. SPase protein was solubilized using 300 mM NaCl, 20 mM Tris pH 8.06, 5 mM Imidazole, 10% glycerol, 1% Triton X-100, prior to purification in Ni-NTA Superflow resin and resin bound protein was washed in a similar buffer containing 1% Elugent in place of Triton X-100 prior to protein eluted in wash buffer supplemented with 300 mM imidazole. Protein purify was judged to exceed 95% by visual inspection of SDS-PAGE followed by Comassie staining. All protein concentrations were determined by BCA assay.
(§3) In addition to the equilibrium binding assays, compound activity is also characterized by measuring inhibition of E. coli and S. aureus substrate cleavage reactions using fluorogenic peptides developed at RQx Pharmaceuticals. Briefly, two fluorogenic peptide substrates (decanoyl-LSSPA Y^NO2 A ? ADK^abzPD (SEQ ID NO: 1) and decanyol-LTPTAY^NO2 A ? ASKK^abzDD (SEQ ID NO: 2)) have been synthesized, where abz is the fluorescence donor 2-aminobenzamide, YNO2 is the fluorescence acceptor 3-nitrotyrosine, and the cleavage site is indicated with an arrow. These substrates are processed with a second order rate constant (Kcat/KM) of 10^5 M^−1s^−1 for E. coli and S. aureus SPase enzymes, and cleavage results in a greater than 10-fold increase in fluorescence signal (excitation at 314 nm, emission at 416 nm) as measured using a SpectraMax M2 fluorescence microplate reader. Two-folder serial dilutions of compound are prepared in cleavage reaction buffer consisting of: 50 mM Tris-HCl pH 8.0, 100 mM NaCl, 10% glycerol, 1 mM EDTA, detergent (1% NP-40 or 0.1% Elugent™ for E. coli LepB or S. aureus SpsB respectively) and either 2.5 nM of E. coli SPase enzyme or 10 nM of S. aureus SPase enzyme. 40 μl aliquots of the compound dilution series in the protein/buffer solution is transferred to black 384-well polypropylene plates, and 10 μl of fluorogenic peptide at a concentration of 100 μM is added to initiate the reaction. The increase in fluorescence, corresponding to substrate cleavage, is monitored continuously at room temperature for 30 minutes and initial reaction rates are calculated based in the linear increase in fluorescence from the initial 30 minutes of the reaction. Reaction rates are plotted as a function of compound concentration, and IC50 values are determined nonlinear regression analysis (SoftMax® Pro v5.4) of the sigmoidal dose-response curve.

S. aureus SPase = target: T2, S. aureus SPase (Staphylococcus aureus, UniProt P0A070); assay: as above; type: biochemical
T2 construct: Full length His-tagged S. aureus SPase protein was expressed similarly; His-tag; made in house; host or cells: E. coli BL21(DE3)
Protocol: as §2, §3

| Structure (SMILES) | MIC (S. aurues NCTC-8325) [µg/mL] | MIC (E. coli ATCC 25922) [µg/mL] | MIC (S. epidermidis RP62A) [µg/mL] | MIC [1] [µg/mL] | MIC (S. pneumoniae D39) [µg/mL] | MIC [2] [µg/mL] | IC50 (E. coli SPase) [µM] | IC50 (S. aureus SPase) [µM] |
| --- | --- | --- | --- | --- | --- | --- | --- | --- |
| CCCCCCCCCCCCCCCC(=O)N(C)[C@H](CO)C(=O)N[C@H](C)C(=O)NCC(=O)N(C)[C@@H]1C(=O)N[C@@H](C)C(=O)N[C@H](C(=O)N[C@H](CO)CCC)Cc2ccc(O)c(c2)-c2cc1ccc2O [Compound 69] | > 64 | > 64 | 16 to 64 (≈ 16.6 to 66.2 µM) | > 64 | 16 to 64 (≈ 16.6 to 66.2 µM) | < 8 | 1 to 10 | > 10 |
| CCCCCCCCCCCCCCCC(=O)N(C)[C@H](CO)C(=O)N[C@H](C)C(=O)NCC(=O)N(C)[C@@H]1C(=O)N[C@@H](C)C(=O)N[C@H](C(=O)NC[C@@H](C)O)Cc2ccc(O)c(c2)-c2cc1ccc2O [Compound 65] | > 64 | > 64 | < 8 | > 64 | 16 to 64 (≈ 17.1 to 68.2 µM) | 16 to 64 (≈ 17.1 to 68.2 µM) | < 1 | 1 to 10 |
| CCCCCCCCCCCCCCCC(=O)N(C)C(CO)C(=O)N[C@H](C)C(=O)NCC(=O)N(C)[C@@H]1C(=O)N[C@@H](C)C(=O)NC(C(=O)NCC(=O)C(=O)N(C)C)Cc2ccc(O)c(c2)-c2cc1ccc2O (stereo partly shown) [Compound 59] | > 64 | > 64 | < 8 | > 64 | 16 to 64 (≈ 16.1 to 64.4 µM) | 16 to 64 (≈ 16.1 to 64.4 µM) | < 1 | 1 to 10 |
| CCCCCCCCCCCCC(=O)N(C)[C@H](CO)C(=O)N[C@H](C)C(=O)NCC(=O)N(C)[C@@H]1C(=O)N[C@@H](C)C(=O)N[C@H](C(=O)O)Cc2ccc(O)c(c2)-c2cc1ccc2O [Compound 86] | > 64 | > 64 | 16 to 64 (≈ 19.1 to 76.3 µM) | < 8 | 16 to 64 (≈ 19.1 to 76.3 µM) | < 8 | < 1 | < 1 |
| CCCCCCCCCCCCCCCC(=O)N(C)[C@H](CO)C(=O)N[C@H](C)C(=O)N(C)CC(=O)N(C)[C@@H]1C(=O)N[C@@H](C)C(=O)N[C@H](C(=O)O)Cc2ccc(O)c(c2)-c2cc1ccc2O [Compound 84] | > 64 | > 64 | 16 to 64 (≈ 17.9 to 71.5 µM) | > 64 | < 8 | > 64 | < 1 | < 1 |
| CCCCCCCCCCCCCCCC(=O)N(C)[C@H](CO)C(=O)N[C@H](C)C(=O)NCC(=O)N(C)[C@@H]1C(=O)N[C@@H](C)C(=O)N[C@H](C(=O)NCC(=O)NS(C)(=O)=O)Cc2ccc(O)c(c2)-c2cc1ccc2O [Compound 60] | > 64 | > 64 | < 8 | > 64 | < 8 | < 8 | < 1 | 1 to 10 |
| CCCCCCCCCCCCCCNC(=O)N(C)[C@H](CO)C(=O)N[C@H](C)C(=O)NCC(=O)N(C)[C@@H]1C(=O)N[C@@H](C)C(=O)N[C@H](C(=O)O)Cc2ccc(O)c(c2)-c2cc1ccc2O [Compound 72] | > 64 | > 64 | < 8 | 16 to 64 (≈ 18.1 to 72.6 µM) | 16 to 64 (≈ 18.1 to 72.6 µM) | < 8 | < 1 | < 1 |
| CCCCCCCCCCCCCCCC(=O)N(C)[C@H](CO)C(=O)N[C@H](C)C(=O)NCC(=O)N(C)[C@@H]1C(=O)N[C@@H](C)C(=O)N[C@H](C(=O)NCC(O)C(=O)O)Cc2ccc(O)c(c2)-c2cc1ccc2O (stereo partly shown) [Compound 78] | > 64 | > 64 | > 64 | > 64 | 16 to 64 (≈ 16.5 to 66.1 µM) | > 64 | < 1 | > 10 |
| CCCCCCCCCCCCCCCC(=O)N(C)[C@H](CO)C(=O)N[C@H](C)C(=O)NCC(=O)N(C)[C@@H]1C(=O)N[C@@H](C)C(=O)N[C@H](C(=O)NC[C@H](C)O)Cc2ccc(O)c(c2)-c2cc1ccc2O [Compound 64] | > 64 | > 64 | < 8 | > 64 | < 8 | 16 to 64 (≈ 17.1 to 68.2 µM) | 1 to 10 | > 10 |
| CCCCCCCCCCCCCCCC(=O)N[C@H](CO)C(=O)N[C@H](C)C(=O)N[C@@H](C)C(=O)N(C)[C@@H]1C(=O)N[C@@H](C)C(=O)N[C@H](C(=O)O)Cc2ccc(O)c(c2)-c2cc1ccc2O [Compound 87] | > 64 | > 64 | < 8 | > 64 | > 64 | > 64 | < 1 | < 1 |
| CCCCCCCCCCCCCCCC(=O)N(C)C(CO)C(=O)N[C@H](C)C(=O)NCC(=O)N(C)[C@@H]1C(=O)N[C@@H](C)C(=O)NC(C(=O)NCC(O)C(N)=O)Cc2ccc(O)c(c2)-c2cc1ccc2O (stereo partly shown) [Compound 82] | > 64 | > 64 | > 64 | > 64 | 16 to 64 (≈ 16.5 to 66.2 µM) | > 64 | 1 to 10 | > 10 |
| CCCCCCCCCCCCCCCC(=O)N(C)[C@H](CO)C(=O)N[C@H](C)C(=O)NCC(=O)N(C)[C@@H]1C(=O)N[C@@H](C)C(=O)N[C@H](C(=O)N[C@H](CO)C(C)O)Cc2ccc(O)c(c2)-c2cc1ccc2O (stereo partly shown) [Compound 68] | > 64 | > 64 | 16 to 64 (≈ 16.5 to 66.1 µM) | > 64 | 16 to 64 (≈ 16.5 to 66.1 µM) | 16 to 64 (≈ 16.5 to 66.1 µM) | 1 to 10 | > 10 |
| CCCCCCCCCCCCCCCC(=O)N(C)[C@H](CO)C(=O)N[C@H](C)C(=O)NCC(=O)N(C)[C@@H]1C(=O)N[C@@H](C)C(=O)N[C@H](C(=O)NC(CO)CO)Cc2ccc(O)c(c2)-c2cc1ccc2O [Compound 67] | > 64 | > 64 | 16 to 64 (≈ 16.8 to 67.1 µM) | > 64 | 16 to 64 (≈ 16.8 to 67.1 µM) | 16 to 64 (≈ 16.8 to 67.1 µM) | > 10 | > 10 |
| CCCCCCCCCCCCCCCC(=O)N(C)[C@H](CO)C(=O)N[C@H](C)C(=O)N[C@@H](C)C(=O)N(C)[C@@H]1C(=O)N[C@@H](C)C(=O)N[C@H](C(=O)O)Cc2ccc(O)c(c2)-c2cc1ccc2O [Compound 91] | > 64 | > 64 | < 8 | > 64 | < 8 | > 64 | < 1 | < 1 |
